These are literature values, as cited in patent publication US20190015503A1, “METHODS FOR THE PROGNOSIS AND TREATMENT OF ENDOMETRIAL CARCINOMA” (INSERM (INSTITUT NATIONAL DE LA SANTÉ DE LA RECHERCHE …, priority 2015, published 2019).

For the series, the system named is prostate cancer cells. The conditions noted are these: dose- and time-dependent.

As to `COc1cccc(OC)c1-c1cc(C(=O)NC2(C(=O)O)C3CC4CC(C3)CC2C4)nn1-c1ccnc2cc(Cl)ccc12` (stereo not shown) [SR48692], the “radio-sensitization (increasing apoptotic cell death and decreasing clonogenic survival)” value is “radio-sensitized prostate cancer cells in a dose- and time-dependent manner”.
